Test results reported in PMC9481570, “A small molecule antagonist of SMN disrupts the interaction between SMN and RNAP II” (Nature Communications, 2022).
Where two headings read alike, the source gives them in different places.

How the values were obtained:
SMN Tudor domain = biological target: T1, SMN Tudor domain (Homo sapiens, UniProt Q16637); test: ITC binding to Tudor domain of SMN
T1 construct: SMN (aa 82–147); His (N, cleaved yes); made in house; host or cells: E. coli BL21 (DE3) Codon plus RIL
T1 sequence (Q16637 82-147): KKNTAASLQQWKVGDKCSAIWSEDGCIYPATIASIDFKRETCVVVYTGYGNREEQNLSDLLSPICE
Text: The coding DNA fragments of following Tudor domains were cloned into pET28-MHL vector: SMN (aa 82–147), UHRF1 (aa 126–285), SMNDC1 (aa 53–130), TDRD3 (aa 554–611), SND1 (aa 650–910), TDRD2 (aa 327–420), FXR1 (aa 2–132), PHF1 (aa 28–87), SGF29 (aa 115–293), JMJD2A (aa 897–1101), 53BP1 (aa 1483–1606), SETDB1 (aa 190–410), LBR (aa 1–67), ZGPAT (aa 120–271). The coding regions of chromodomain of CBX7 (aa 8–62), PWWP domain of DNMT3A (aa 275–417), WD40 repeats of WDR5 (aa 24–334) and CW domain of ZCWPW2 (aa 21–78) were also subcloned into pET28-MHL vector to generate N-terminally His-tagged fusion protein. The MBT repeats of L3MBTL1 (aa 200–522) and L3MBTL2 (aa 170–625) were subcloned into pET28GST-LIC vector to generate N-terminally GST-His-tagged fusion protein. All the plasmids were generated by ligase independent cloning (Vazyme Biotech, C112 or ABclonal Technology, RK21020). […] The proteins were further purified by Superdex75 or Superdex200 gel-filtration column (GE Healthcare) in a buffer containing 20 mM Tris-HCl, pH 7.5, 150 mM NaCl and 1 mM DTT. For crystallization experiments, purified proteins were concentrated to 18 mg/mL for SMN, 23 mg/mL for UHRF1 and 10 mg/mL for TDRD3 in the gel-filtration buffer. All the mutations were introduced with the QuikChange II XL site-directed mutagenesis kit (Stratagene, 200522) and confirmed by DNA sequencing. Mutant proteins were also expressed in E. coli BL21 (DE3) Codon plus RIL and purified using the same procedures described above. The molecular weight of all protein samples was measured by mass spectrometry.
For the ITC measurement, the concentrated proteins were diluted into 20 mM Tris-HCl, pH 7.5, 150 mM NaCl (ITC buffer); the lyophilized compounds were dissolved in the same buffer, and the pH value was adjusted by adding 2 M NaOH or 2 M HCl. The compounds that could not be dissolved in the ITC buffer were dissolved in DMSO with the accessible highest concentration. Compound concentrations were calculated from the mass and the volume of the solvent. For the ITC assay with compound dissolved in DMSO, the protein was diluted by ITC buffer containing same final concentration of DMSO. All measurements were performed in duplicate at 25 °C, using a VP-ITC (MicroCal, Inc.), an iTC-200 (MicroCal, Inc.), or a Nano-ITC (TA, Inc.) microcalorimeter. The protein with a concentration of 50–100 μM was placed in the cell chamber, and the compounds with a concentration of 0.5–2 mM in syringe was injected in 25, 20, or 20 successive injections with a spacing of 180, 150, or 120 s for VP-ITC, iTC-200, or Nano-ITC, respectively, as previously described[30]–[32]. iTC-200 or Nano-ITC data were consistent with those from the VP-ITC instrument, based on ITC results of SMN-compound 1 detected by using all the instruments. Control experiments were performed under identical conditions to determine the heat signals that arise from injection of the compounds into the buffer. Data were fitted using the single-site binding model within the Origin software 7.0 package (MicroCal, Inc.) or the independent model within the Nano-Analyze software package (TA, Inc.).

[1] = tested on: RNAP II occupancy at ACTB gene; test: RNAP II (POLR2A) ChIP-qPCR along the ACTB gene; type: cell-based, human; settings: 72 h; for POLR2A ChIP-qPCR, ACTB position 332 / POLR2A ChIP-qPCR, ACTB position 1671 / POLR2A ChIP-qPCR, ACTB position 2911 / POLR2A ChIP-qPCR, ACTB position 3560 / POLR2A ChIP-qPCR, ACTB position 3752 / POLR2A ChIP-qPCR, ACTB position 4657 / POLR2A ChIP-qPCR, ACTB position 5590 / POLR2A ChIP-qPCR, ACTB position -72: HEK293, 20 μM; for occupancy levels of RNAP II at the promoter regions and 3′-end of the ACTB gene: HEK293 cells, 20 µM
Experimental: ChIP was performed using the EZ-ChIP™ A - Chromatin Immunoprecipitation Kit (Millipore, 17-371) according to the manufacturer’s instruction. Antibodies were used with a range of 1–2 μg, and IgG (Millipore, polyclonal antibody, 12-370) was used as a background control. After immunoprecipitation, genomic DNA was de-crosslinked in ChIP elution buffer containing 5 M NaCl at 65 °C overnight and purified with the Qiaex II kit (Qiagen, 20021), and eluted in water for PCR amplification. Immunoprecipitated and input DNAs were used as templates for qPCR. The qPCR primer sequences for ACTB gene are the same as described earlier[9] and shown in the Supplementary Table 2. For analysis of SMN chemical antagonists, HEK293 cells were treated with DMSO, compound 1 or compound 2 (a final concentration of 20 μM) for 72 h, before processing for ChIP.

[2] = ITC, Tudor domain of SMN wild type, 25 °C, read-out: Kd (SMN)

| SMILES | Kd (SMN Tudor domain; [2]) [µM] | Kd (SMN Tudor domain; Supplementary Fig. 11a, iTC-200, read-out: Kd, ITC binding curve, SMN) [µM] | selectivity of SMN and SMNDC1 Tudor domains over TDRD3 (SMN Tudor domain; from ITC Kd) | selectivity over other tested methyllysine or methylarginine binding domains (SMN Tudor domain; from ITC Kd) [fold] | SMN binds more tightly than its physiological ligands (SMN Tudor domain; versus symmetric dimethylarginine or R1810me2s-POLR2A) | POLR2A ChIP-qPCR, ACTB position 332 [1] | POLR2A ChIP-qPCR, ACTB position 1671 [1] | POLR2A ChIP-qPCR, ACTB position 2911 [1] | POLR2A ChIP-qPCR, ACTB position 3560 [1] | POLR2A ChIP-qPCR, ACTB position 3752 [1] | POLR2A ChIP-qPCR, ACTB position 4657 [1] | POLR2A ChIP-qPCR, ACTB position 5590 [1] | POLR2A ChIP-qPCR, ACTB position -72 [1] | occupancy levels of RNAP II at the promoter regions and 3′-end of the ACTB gene [1] |
| --- | --- | --- | --- | --- | --- | --- | --- | --- | --- | --- | --- | --- | --- | --- |
| Cn1c2c(c(=N)c3c1CCC3)CCC2 [Compound 1, 4-methyl-2,3,4,5,6,7-hexahydrodicyclopenta[b,e]pyridin-8(1H)-imine] | 2.6 ± 0.1 | 3.9 ± 0.5 | ~ 4 fold | > 4 | 60–180 fold | 0.1628 | 0.1331 | 0.08894 | 0.1246 | 0.2307 | 0.1056 | 0.1381 | 0.4274 | significantly increased |
| CCCn1c2c(c(=N)c3c1CCC3)CCC2 [Compound 2, 4-propyl-2,3,4,5,6,7-hexahydrodicyclopenta[b,e]pyridin-8(1H)-imine] | 9.3 ± 0.6 |  |  |  |  | 0.1333 | 0.1287 | 0.06481 | 0.09661 | 0.2124 | 0.1677 | 0.1104 | 0.5589 | significantly increased |
